≈ marks a conversion by molar mass, not a printed value.
Legend:
Format in all cases: functional
Staphylococcus aureus [1] = assay: Antibacterial activity against macrolide-susceptible Staphylococcus aureus ATCC 29213
Staphylococcus aureus [2] = assay: Antibacterial activity against macrolide-resistant Staphylococcus aureus ATCC 33591 constitutively expressing ermA
Staphylococcus aureus [3] = assay: Ratio of MIC for macrolide-resistant Staphylococcus aureus ATCC 33591 to MIC for macrolide-susceptible Staphylococcus aureus ATCC 29213

SMILES: CC[C@H]1OC(=O)[C@H](C)[C@@H](O[C@H]2C[C@@](C)(OC)[C@@H](O)[C@H](C)O2)[C@H](C)[C@@H](O[C@@H]2O[C@H](C)C[C@H](NC)[C@H]2O)[C@](C)(OC)C[C@@H](C)C(=O)[C@H](C)[C@@H](O)[C@]1(C)O
- MIC (Staphylococcus aureus [1]): 4 µg/mL (≈ 5.45 µM)
- MIC (Staphylococcus aureus [2]): > 256 µg/mL

SMILES: CC[C@H]1OC(=O)[C@H](C)[C@@H](O[C@H]2C[C@@](C)(OC)[C@@H](O)[C@H](C)O2)[C@H](C)[C@@H](O[C@@H]2O[C@H](C)C[C@H](NC)[C@H]2O)[C@](C)(O)C[C@@H](C)C(=O)[C@H](C)[C@@H](O)[C@]1(C)O
- MIC (Staphylococcus aureus [1]): 8 µg/mL (≈ 11.1 µM)
- MIC (Staphylococcus aureus [2]): > 256 µg/mL

SMILES: CC[C@H]1OC(=O)[C@H](C)[C@@H](O[C@H]2C[C@@](C)(OC)[C@@H](O)[C@H](C)O2)[C@H](C)[C@@H](O[C@@H]2O[C@H](C)C[C@H](N(C)C(=N)N)[C@H]2O)[C@](C)(OC)C[C@@H](C)C(=O)[C@H](C)[C@@H](O)[C@]1(C)O
- MIC (Staphylococcus aureus [1]): 32 µg/mL (≈ 41.2 µM)
- MIC (Staphylococcus aureus [2]): > 256 µg/mL

SMILES: CC[C@H]1OC(=O)[C@H](C)[C@@H](O[C@H]2C[C@@](C)(OC)[C@@H](O)[C@H](C)O2)[C@H](C)[C@@H](O[C@H]2C[C@@H](N(C)C)C[C@@H](C)O2)[C@](C)(O)C[C@@H](C)C(=O)[C@H](C)[C@@H](O)[C@]1(C)O
- MIC (Staphylococcus aureus [1]): 64 µg/mL (≈ 89.1 µM)
- MIC (Staphylococcus aureus [2]): > 256 µg/mL

SMILES: CC[C@H]1OC(=O)[C@H](C)[C@@H](O[C@H]2C[C@@](C)(OC)[C@@H](O)[C@H](C)O2)[C@H](C)[C@@H](O[C@H]2C[C@@H](N(C)C)C[C@@H](C)O2)[C@](C)(OC)C[C@@H](C)C(=O)[C@H](C)[C@@H](O)[C@]1(C)O
- MIC (Staphylococcus aureus [1]): 64 µg/mL (≈ 87.4 µM)
- MIC (Staphylococcus aureus [2]): > 256 µg/mL

SMILES: CC[C@H]1OC(=O)[C@H](C)C(=O)[C@H](C)[C@@H](O[C@@H]2O[C@H](C)C[C@H](NC)[C@H]2O)[C@](C)(OC)C[C@@H](C)C(=O)[C@H](C)[C@H]2N(CCCCn3cnc(-c4cccnc4)c3)C(=O)O[C@]12C
- MIC (Staphylococcus aureus [1]): 16 µg/mL (≈ 20.1 µM)
- MIC (Staphylococcus aureus [2]): > 256 µg/mL

SMILES: CC[C@H]1OC(=O)[C@H](C)C(=O)[C@H](C)[C@@H](O[C@H]2C[C@@H](N(C)C)C[C@@H](C)O2)[C@](C)(OC)C[C@@H](C)C(=O)[C@H](C)[C@H]2N(CCCCn3cnc(-c4cccnc4)c3)C(=O)O[C@]12C
- MIC (Staphylococcus aureus [1]): 8 µg/mL (≈ 10.1 µM)
- MIC (Staphylococcus aureus [2]): > 256 µg/mL

SMILES: CCCCN(C)[C@H]1C[C@@H](C)O[C@@H](O[C@@H]2[C@@H](C)C(=O)[C@@H](C)C(=O)O[C@H](CC)[C@@]3(C)OC(=O)N(CCCCn4cnc(-c5cccnc5)c4)[C@@H]3[C@@H](C)C(=O)[C@H](C)C[C@@]2(C)OC)[C@@H]1O
- MIC (Staphylococcus aureus [1]): 0.5 µg/mL (≈ 0.585 µM)
- MIC (Staphylococcus aureus [2]): > 256 µg/mL

SMILES: CCCCN(C)[C@@H]1C[C@H](O[C@@H]2[C@@H](C)C(=O)[C@@H](C)C(=O)O[C@H](CC)[C@@]3(C)OC(=O)N(CCCCn4cnc(-c5cccnc5)c4)[C@@H]3[C@@H](C)C(=O)[C@H](C)C[C@@]2(C)OC)O[C@H](C)C1
- MIC (Staphylococcus aureus [1]): 64 µg/mL (≈ 76.4 µM)
- MIC (Staphylococcus aureus [2]): > 256 µg/mL

SMILES: CC[C@H]1OC(=O)[C@H](C)C(=O)[C@H](C)[C@@H](O[C@H]2C[C@@H](N(C)C)C[C@@H](C)O2)[C@](C)(OC/C=C/c2cnc3ccccc3c2)C[C@@H](C)C(=O)[C@H](C)[C@H]2NC(=O)O[C@@]21C
- MIC (Staphylococcus aureus [1]): 4 µg/mL (≈ 5.33 µM)
- MIC (Staphylococcus aureus [2]): > 256 µg/mL

SMILES: CC[C@H]1OC(=O)[C@H](C)C(=O)[C@H](C)[C@@H](O[C@@H]2O[C@H](C)C[C@H](N(C)C)[C@H]2O)[C@](C)(OCC=Cc2cnc3ccccc3c2)C[C@@H](C)C(=O)[C@H](C)[C@H]2NC(=O)O[C@@]21C [CETHROMYCIN]
- MIC (Staphylococcus aureus [1]): 0.0075 µg/mL (≈ 0.00979 µM)
- MIC (Staphylococcus aureus [2]): > 256 µg/mL
- Ratio (Staphylococcus aureus [3]): >10000

SMILES: CC[C@H]1OC(=O)[C@H](C)[C@@H](O[C@H]2C[C@@](C)(OC)[C@@H](O)[C@H](C)O2)[C@H](C)[C@@H](O[C@@H]2O[C@H](C)C[C@H](N(C)C)[C@H]2O)[C@](C)(O)C[C@@H](C)C(=O)[C@H](C)[C@@H](O)[C@]1(C)O [ERYTHROMYCIN]
- MIC (Staphylococcus aureus [1]): 0.5 µg/mL (≈ 0.681 µM)
- MIC (Staphylococcus aureus [2]): > 256 µg/mL

SMILES: CC[C@H]1OC(=O)[C@H](C)C(=O)[C@H](C)[C@@H](O[C@@H]2O[C@H](C)C[C@H](N(C)C)[C@H]2O)[C@](C)(OC)C[C@@H](C)C(=O)[C@H](C)[C@H]2N(CCCCn3cnc(-c4cccnc4)c3)C(=O)O[C@]12C [TELITHROMYCIN]
- MIC (Staphylococcus aureus [1]): 0.08 µg/mL (≈ 0.0985 µM)
- MIC (Staphylococcus aureus [2]): > 256 µg/mL

Source: ChEMBL document CHEMBL2062457, “Synthesis and antibacterial activity of desosamine-modified macrolide derivatives” (2012)
